{
  "source": "patent US20170216252A1",
  "about": "“ANTI-BACTERIAL PYRUVATE KINASE MODULATOR COMPOUNDS, COMPOSITIONS, USES AND METHODS” (SIMON FRASER UNIVERSITY, priority 2014, published 2017)",
  "key": {"[1]": {"test_system": "A. baumannii (ATCC 19606)", "test": "Broth microdilution MIC", "assay_type": "cell-based", "conditions": "Acinetobacter baumannii, ATCC19606; A. baumannii (ATCC 19606); read-out: MIC (μg/mL) B", "experimental": "(§1) The antimicrobial activities of PK inhibitor candidates were determined using the 96-well microtiter standard 2-fold serial broth microdilution method as described by CLSI (formerly NCCLS) with the various gram-positive and gram-negative bacteria species mentioned above. Bacteria from a single colony were grown, overnight in either BHI Broth (VRE), mueller hinton broth (S. aureus 29213; MRSA USA400) or L-broth (E. coli, P. aeruginosa, S. typhimuriu, K. Pneumonia and A. baumannii). […] Culture plates were incubated for 18-24 h at 37° C., and optical density at 600 nm (OD600) was measured using a Benchmark Plus™ microplate spectrophotometer (Bio-Rad™). The absorbance control values for the series containing CAMHB and inhibitor were subtracted as background from the corresponding infected wells. The MIC was defined as the lowest concentration of test compound leading to complete inhibition of cell growth in relationship to compound-free control wells as determined by optical density. […] All assays were run in triplicate (Tables 1-6) or duplicate. Experiments were replicated at least twice to verify reproducibility using the above conditions.\n(§2) The antimicrobial activity of selected compounds against the gram negative bacteria Klebsiella pneumoniae, Acinetobacter baumannii, E. coli, Pseudomonas aeruginosa and Salmonella typhimurium, as well as additional gram positive bacteria, including drug-resistant strains, was tested according to the procedures provided under “General Methodologies” above."}, "S. typhimurium (SL 1344)": {"test_system": "S. typhimurium (SL 1344)", "test": "Broth microdilution MIC", "assay_type": "cell-based", "conditions": "Salmonella enterica", "experimental": "as §1, §2"}, "MRSA MW2 (USA400)": {"test_system": "MRSA MW2 (USA400)", "test": "Broth microdilution MIC", "assay_type": "cell-based", "conditions": "Staphylococcus aureus; MRSA MW2 (USA400); read-out: MIC (μg/mL) G", "experimental": "as §1, §2"}, "K. pneumoniae (C238)": {"test_system": "K. pneumoniae (C238)", "test": "Broth microdilution MIC", "assay_type": "cell-based", "conditions": "Klebsiella pneumoniae; K. pneumoniae (C238); read-out: MIC (μg/mL) A", "experimental": "as §1, §2"}, "S. pyogenes (ATCC700294)": {"test_system": "S. pyogenes (ATCC700294)", "test": "Broth microdilution MIC", "assay_type": "cell-based", "conditions": "Streptococcus pyogenes", "experimental": "as §1, §2"}, "P. aeruginosa (PA01)": {"test_system": "P. aeruginosa (PA01)", "test": "Broth microdilution MIC", "assay_type": "cell-based", "conditions": "Pseudomonas aeruginosa", "experimental": "as §1, §2"}, "Pharmacokinetic study": {"test": "Pharmacokinetic study", "assay_type": "in vivo, female CD-1 mice", "conditions": "female, CD-1, mouse, plasma", "experimental": "The MTD and pharmacokinetic profiles of compounds 123 and 178 administered IV or PO were determined in female CD-1 mice (6-8 weeks of age). Compounds were dissolved in 3% DMSO/6% Solutol® HS 15/10 mM PB (pH7.4) for IV administration and in 3% DMSO/6% Solutol® HS 15/water for oral administration.\nFor the pharmacokinetic study, animals were injected with their respective compound at the dose indicated in 11. At their respective time point, animals were deeply anesthetized with isoflurane and then asphyxiated with CO2. Cardiac puncture blood was collected immediately following death, and the blood processed to generate plasma."}, "S. aureus ATCC 29123": {"test_system": "S. aureus ATCC 29123", "test": "Neutropenic mouse Staphylococcus aureus thigh infection model", "assay_type": "in vivo", "conditions": "for median CFU/thigh: 24 h endpoint", "experimental": "The antimicrobial activity of compound 178 against S. aureus ATCC 29123 was tested in vivo using the neutropenic mouse Staphylococcus aureus thigh infection model. […] Animals were individually monitored for adverse reactions for 30 min post-infection. […] Vancomycin was administered as a solution in PBS. The test compounds were administered as outlined in Table 12 at 2 and 8 hours post-infection and animals were individually monitored for adverse reactions for 30 min after each injection. All animals were then monitored hourly from 20 hours post infection to the endpoint (t=24 hr post infection). At the indicated timepoint, animals were sacrificed and the injected thigh collected. Quantitative enumeration of bacterial load was determined by plating serial dilutions from homogenized thigh muscles. Homogenized muscle was in a total of 2 mL volume, from which a 1 in 10 dilution was prepared (100 μL into 900 μL saline). From this a series of dilutions were prepared and plated on Mueller Hinton agar plates. […] At the end of this time colony counts were determined and the final CFU per mL calculated."}, "E. coli (DAS 1-IMP)": {"test_system": "E. coli (DAS 1-IMP)", "test": "microbe, parasite or virus in culture", "assay_type": "cell-based, Escherichia coli", "conditions": "Escherichia coli, read-out: MIC (μg/mL) C, E. coli (DAS 1-IMP)", "experimental": "as §1, §2"}},
  "data": [
    {"smiles": "O=C(c1c(-c2cc3cc(Cl)ccc3[nH]2)[nH]c2cc(Br)ccc12)C(F)(F)F", "note": "[Compound 178, 1-(6-bromo-5′-chloro-1H,1′H-[2,2′-biindol]-3-yl)-2,2,2-trifluoroethan-1-one]", "values": [
      {"measurement": "MIC", "setting": "[1]", "result": "> 64", "unit": "µg/mL"},
      {"measurement": "MIC", "setting": "S. typhimurium (SL 1344)", "result": "> 64", "unit": "µg/mL"},
      {"measurement": "MIC", "setting": "MRSA MW2 (USA400)", "result": 0.5, "unit": "µg/mL"},
      {"measurement": "MIC", "setting": "K. pneumoniae (C238)", "result": 1, "unit": "µg/mL"},
      {"measurement": "MIC", "setting": "S. pyogenes (ATCC700294)", "result": 1, "unit": "µg/mL"},
      {"measurement": "MIC", "setting": "P. aeruginosa (PA01)", "result": "> 64", "unit": "µg/mL"},
      {"measurement": "bioavailability", "setting": "Pharmacokinetic study; 10 mg/kg, PO administration, read-out: bioavailability (% F)", "result": 21, "unit": "%"},
      {"measurement": "Cmax", "setting": "Pharmacokinetic study; IV administration at 3 mg/kg", "result": 19000, "unit": "ng/mL"},
      {"measurement": "half-life", "setting": "Pharmacokinetic study; IV administration at 3 mg/kg", "result": 2.27, "unit": "h"},
      {"measurement": "log reduction in median counts for CFU/thigh", "setting": "S. aureus ATCC 29123; all treated groups vs untreated control", "result": "≥ 1", "unit": "log"},
      {"measurement": "median CFU/thigh", "setting": "S. aureus ATCC 29123; group 3, 3 mg/kg IV at 2 and 8 h", "result": "8.27×10^6 CFU/thigh"},
      {"measurement": "median CFU/thigh", "setting": "S. aureus ATCC 29123; group 4, 10 mg/kg IV at 2 and 8 h", "result": "1.38×10^3 CFU/thigh"},
      {"measurement": "median CFU/thigh", "setting": "S. aureus ATCC 29123; group 5, PO 10 mg/kg at 2 and 8 h", "result": "1.2×10^2 CFU/thigh"},
      {"measurement": "log reduction in median counts", "setting": "S. aureus ATCC 29123; group 5, PO 10 mg/kg vs untreated control", "result": 6, "unit": "log"},
      {"measurement": "CFU/thigh of one mouse dosed only once", "setting": "S. aureus ATCC 29123; group 5, PO 10 mg/kg, single dose", "result": "2.2×10^2 CFU/thigh"},
      {"measurement": "MIC", "setting": "E. coli (DAS 1-IMP)", "result": "> 64", "unit": "µg/mL"}
    ]}
  ]
}
